Experimental data from the supplement of paper PMC8882468.

Columns and labels:
Test in all cases: CTG-3D luminescence at 96 h relative to day-0 seeding control (ratio to day 0); higher = more growth / less cytotoxicity; PDxO 3D drug screen, 96 h, CTG-3D normalised to day-0 seeding control.
[1] = test system: HCI-015 (organoid from a triple-negative breast cancer xenograft)
[2] = test system: MDA-MB-231
[3] = test system: HCI-016 (organoid from a triple-negative breast cancer xenograft)
[4] = test system: HCI-012 (organoid from a breast cancer xenograft)
[5] = test system: HCI-005.E2 (organoid from a breast cancer xenograft with a HER2-positive history)
[6] = test system: HCI-017.E2 (organoid from an ER-positive breast cancer xenograft)

C=CC(=O)N1CCC[C@@H](n2nc(-c3ccc(Oc4ccccc4)cc3)c3c(N)ncnc32)C1 [ibrutinib]
CTG-3D luminescence at 96 h
Details	12.5 pM	0.00025 µM	0.005 µM	0.1 µM	1 µM	10 µM	100 µM	625 fM
[1], days in culture: 172	2.54	1.92	2.32	1.06	1.37	1.14	7.09e-05	2.36
[1], days in culture: 191	1.91	1.22	1.64	1.03	0.827	0.68	0.00148	1.52
[1], days in culture: 218	1.88	1.37	1.76	1.6	1.4	1.33	0.00244	1.81
[3], days in culture: 153	3.08	1.69	2.64	2.11	2.69	1.59	-0.00474	2.85
[3], days in culture: 172	1.97	1.45	2	1.61	1.46	1.04	-0.00481	1.49
[3], days in culture: 190	1.59	1.26	1.45	1.11	0.915	0.881	-0.00814	1.37
[3], days in culture: 199	1.58	1.62	1.43	1.26	1.35	1.21	-0.00558	1.72
[4], days in culture: 143	1.95	2	1.95	2.2	1.64	1.12	-0.0164	1.75
[4], days in culture: 162	2.49	1.94	2.13	2.98	1.72	1.53	-0.0115	2.67
[4], days in culture: 201	2.76	1.92	1.72	1.69	2.52	0.842	-0.018	1.54
[6], days in culture: 85	2.54	2.97	2.31	2.54	1.88	1.6	0.0338	2.31

CTG-3D luminescence at 96 h
Details	12.5 pM	0.00025 µM	0.005 µM	0.1 µM	1 µM	10 µM	100 µM	625 fM
[2]	4.49	4.45	4.49	4.64	4.82	4.66	-0.0103	4.55
[5]	1.47	2	1.22	1.93	1.38	0.629	-0.00377	1.61
[6]	1.84	2.24	2.27	2.21	2.29	1.49	0.00316	2.16

CN(Cc1cnc2nc(N)nc(N)c2n1)c1ccc(C(=O)N[C@@H](CCC(=O)O)C(=O)O)cc1 [methotrexate]
CTG-3D luminescence at 96 h
Details	12.5 pM	0.00025 µM	0.005 µM	0.1 µM	1 µM	10 µM	100 µM	625 fM
[1], days in culture: 172	2.51	2.28	2.36	1.31	1.55	1.13	1.06	2.55
[1], days in culture: 191	1.94	1.41	1.62	1.1	1.23	0.977	0.939	1.36
[1], days in culture: 218	1.75	1.57	1.63	1.69	1.48	1.63	1.21	1.79
[3], days in culture: 153	3.33	1.65	2.64	1.65	1.9	2.08	1.39	2.86
[3], days in culture: 172	2.17	1.68	1.56	1.51	1.49	1.25	1.41	1.71
[3], days in culture: 190	1.69	1.3	1.7	0.906	1.08	1.21	1.52	0.969
[3], days in culture: 199	1.57	1.47	1.56	1.47	1.53	1.37	1.26	1.73
[4], days in culture: 143	2.07	1.83	2.09	1.37	1.4	1.33	1.51	2.07
[4], days in culture: 162	2.66	2.5	2.06	1.69	1.04	1.12	1.06	2.7
[4], days in culture: 201	2.49	2.01	1.57	0.935	1.44	0.611	1.21	1.49
[6], days in culture: 85	2.97	2.49	2.7	2.26	2.43	2.05	2.13	2.34

CTG-3D luminescence at 96 h
Details	12.5 pM	0.00025 µM	0.005 µM	0.1 µM	1 µM	10 µM	100 µM	625 fM
[2]	4.34	4.29	4.44	4.37	2.63	2.29	2.66	4.36
[5]	2.09	1.81	1.86	1.02	0.572	0.678	0.678	2.1
[6]	2.07	2.19	2.14	2	2.22	2.19	2.15	2.05
